Source: ChEMBL document CHEMBL3885881, “DrugMatrix”

Species on record: Rattus norvegicus
Assay: DrugMatrix - Regimen: Daily Repeat
Assay type: toxicity, organism-based, Sprague-Dawley
Set-up: regimen Daily Repeat, gender Male, age 6-8 weeks
Settings: in vivo, po, route oral GAVAGE, […]; for ABSOLUTE BASOPHIL / ABSOLUTE EOSINOPHIL / ABSOLUTE LYMPHOCYTE / ABSOLUTE MONOCYTE / ABSOLUTE SEGMENTED NEUTROPHIL / BASOPHIL / EOSINOPHIL / ERYTHROCYTE COUNT / HEMATOCRIT / HEMOGLOBIN / LEUKOCYTE COUNT / LYMPHOCYTE / MEAN CORPUSCULAR HEMOGLOBIN / MEAN CORPUSCULAR HEMOGLOBIN CONCENTRATION / MEAN CORPUSCULAR VOLUME / MONOCYTE / NEUTROPHIL / NUCLEATED RED BLOOD CELLS / PLATELET COUNT: tissue Blood; for ALANINE AMINOTRANSFERASE / ALBUMIN / ALKALINE PHOSPHATASE / ASPARTATE AMINOTRANSFERASE / BLOOD UREA NITROGEN / CARBON DIOXIDE / CHLORIDE / CHOLESTEROL / CREATINE PHOSPHOKINASE / CREATININE / GLUCOSE / LACTATE DEHYDROGENASE / LIPASE / PHOSPHORUS / POTASSIUM / SODIUM / TOTAL BILIRUBIN / TOTAL PROTEIN / URIC ACID: tissue Plasma
[1] = 3 mg/kg, 120 h, dose level Low, time 5 day
[2] = 110 mg/kg, 72 h, dose level High, time 3 day
[3] = 110 mg/kg, 120 h, dose level High, time 5 day

Cc1cccc(Nc2ccncc2S(=O)(=O)NC(=O)NC(C)C)c1 [TORSEMIDE]
ABSOLUTE BASOPHIL [1]: 0 CELLS/uL | ABSOLUTE EOSINOPHIL [1]: 64 CELLS/uL | ABSOLUTE LYMPHOCYTE [1]: 7502 CELLS/uL | ABSOLUTE MONOCYTE [1]: 142 CELLS/uL | ABSOLUTE SEGMENTED NEUTROPHIL [1]: 525.33 CELLS/uL | BASOPHIL [1]: 0% | EOSINOPHIL [1]: 0.67% | ERYTHROCYTE COUNT [1]: 5.57 x10E6/uL | HEMATOCRIT [1]: 35.4% | HEMOGLOBIN [1]: 13.63 G/DL | LEUKOCYTE COUNT [1]: 8.23 x10E3/uL | LYMPHOCYTE [1]: 91.33% | MEAN CORPUSCULAR HEMOGLOBIN [1]: 24.57 pg | MEAN CORPUSCULAR HEMOGLOBIN CONCENTRATION [1]: 38.5 G/DL | MEAN CORPUSCULAR VOLUME [1]: 63.67 fL | MONOCYTE [1]: 1.67% | NEUTROPHIL [1]: 6.33% | NUCLEATED RED BLOOD CELLS [1]: 0 /100WBC | PLATELET COUNT [1]: 1174 x10E3/uL | ALANINE AMINOTRANSFERASE [1]: 54.67 u/L | ALBUMIN [1]: 4 G/DL | ALKALINE PHOSPHATASE [1]: 376.67 u/L | ASPARTATE AMINOTRANSFERASE [1]: 76 u/L | BLOOD UREA NITROGEN [1]: 11.67 mg/dL | CARBON DIOXIDE [1]: 31.33 mmol/L | CHLORIDE [1]: 100 MEQ/L | CHOLESTEROL [1]: 63.67 mg/dL | CREATINE PHOSPHOKINASE [1]: 293.67 u/L | CREATININE [1]: 0.14 mg/dL | GLUCOSE [1]: 148.67 mg/dL | LACTATE DEHYDROGENASE [1]: 190.33 u/L | LIPASE [1]: 10.33 u/L | PHOSPHORUS [1]: 11.3 mg/dL | POTASSIUM [1]: 6.36 MEQ/L | SODIUM [1]: 144.87 MEQ/L | TOTAL BILIRUBIN [1]: 0.17 mg/dL | TOTAL PROTEIN [1]: 6.03 G/DL | URIC ACID [1]: 0.47 mg/dL | ABSOLUTE BASOPHIL [2]: 0 CELLS/uL | ABSOLUTE EOSINOPHIL [2]: 0 CELLS/uL | ABSOLUTE LYMPHOCYTE [2]: 16133.33 CELLS/uL | ABSOLUTE MONOCYTE [2]: 63.33 CELLS/uL | ABSOLUTE SEGMENTED NEUTROPHIL [2]: 1136.67 CELLS/uL | BASOPHIL [2]: 0% | EOSINOPHIL [2]: 0% | ERYTHROCYTE COUNT [2]: 5.8 x10E6/uL | HEMATOCRIT [2]: 36.3% | HEMOGLOBIN [2]: 14.23 G/DL | LEUKOCYTE COUNT [2]: 17.33 x10E3/uL | LYMPHOCYTE [2]: 93.33% | MEAN CORPUSCULAR HEMOGLOBIN [2]: 24.53 pg | MEAN CORPUSCULAR HEMOGLOBIN CONCENTRATION [2]: 39.23 G/DL | MEAN CORPUSCULAR VOLUME [2]: 62.57 fL | MONOCYTE [2]: 0.33% | NEUTROPHIL [2]: 6.33% | NUCLEATED RED BLOOD CELLS [2]: 0 /100WBC | PLATELET COUNT [2]: 1008.33 x10E3/uL | ALANINE AMINOTRANSFERASE [2]: 60.33 u/L | ALBUMIN [2]: 4.17 G/DL | ALKALINE PHOSPHATASE [2]: 282 u/L | ASPARTATE AMINOTRANSFERASE [2]: 86 u/L | BLOOD UREA NITROGEN [2]: 29.33 mg/dL | CARBON DIOXIDE [2]: 33.33 mmol/L | CHLORIDE [2]: 93.33 MEQ/L | CHOLESTEROL [2]: 69.33 mg/dL | CREATINE PHOSPHOKINASE [2]: 98.67 u/L | CREATININE [2]: 0.32 mg/dL | GLUCOSE [2]: 148 mg/dL | LACTATE DEHYDROGENASE [2]: 104.67 u/L | LIPASE [2]: 12 u/L | PHOSPHORUS [2]: 8.13 mg/dL | POTASSIUM [2]: 5.2 MEQ/L | SODIUM [2]: 142.37 MEQ/L | TOTAL BILIRUBIN [2]: 0.2 mg/dL | TOTAL PROTEIN [2]: 5.37 G/DL | URIC ACID [2]: 1.2 mg/dL | ABSOLUTE BASOPHIL [3]: 0 CELLS/uL | ABSOLUTE EOSINOPHIL [3]: 0 CELLS/uL | ABSOLUTE LYMPHOCYTE [3]: 12824.33 CELLS/uL | ABSOLUTE MONOCYTE [3]: 353.67 CELLS/uL | ABSOLUTE SEGMENTED NEUTROPHIL [3]: 788.67 CELLS/uL | BASOPHIL [3]: 0% | EOSINOPHIL [3]: 0% | ERYTHROCYTE COUNT [3]: 6.15 x10E6/uL | HEMATOCRIT [3]: 38.4% | HEMOGLOBIN [3]: 14.97 G/DL | LEUKOCYTE COUNT [3]: 13.97 x10E3/uL | LYMPHOCYTE [3]: 92% | MEAN CORPUSCULAR HEMOGLOBIN [3]: 24.37 pg | MEAN CORPUSCULAR HEMOGLOBIN CONCENTRATION [3]: 38.97 G/DL | MEAN CORPUSCULAR VOLUME [3]: 62.5 fL | MONOCYTE [3]: 2.33% | NEUTROPHIL [3]: 5.67% | NUCLEATED RED BLOOD CELLS [3]: 0.33 /100WBC | PLATELET COUNT [3]: 1188.33 x10E3/uL | ALANINE AMINOTRANSFERASE [3]: 70 u/L | ALBUMIN [3]: 4.5 G/DL | ALKALINE PHOSPHATASE [3]: 395.67 u/L | ASPARTATE AMINOTRANSFERASE [3]: 104 u/L | BLOOD UREA NITROGEN [3]: 29 mg/dL | CARBON DIOXIDE [3]: 38.33 mmol/L | CHLORIDE [3]: 86.33 MEQ/L | CHOLESTEROL [3]: 65.33 mg/dL | CREATINE PHOSPHOKINASE [3]: 234.67 u/L | CREATININE [3]: 0.3 mg/dL | GLUCOSE [3]: 176 mg/dL | LACTATE DEHYDROGENASE [3]: 220.33 u/L | LIPASE [3]: 10.67 u/L | PHOSPHORUS [3]: 8.93 mg/dL | POTASSIUM [3]: 4.3 MEQ/L | SODIUM [3]: 142.87 MEQ/L | TOTAL BILIRUBIN [3]: 0.1 mg/dL | TOTAL PROTEIN [3]: 6.83 G/DL | URIC ACID [3]: 0.6 mg/dL
